Measured values: US20230293526A1, “METHOD FOR TREATING CANCER WITH A REVERSE TRANSCRIPTASE INHIBITOR” (PrimeFour Therapeutics, Inc., priority 2020, published 2023)

Assays:
Test in all cases: Cell proliferation Ex.3
Type in all cases: cell-based
[1] = test system: SNB75; conditions: Homo sapiens, SNB-75
Protocol: (§1) A dose response relationship on cell proliferation was assessed for Compound 13 on 140 tumor cell lines. […] Cells were cultured in the appropriate media. For the assays, cells were seeded in white cell culture-treated flat and clear bottom multiwell plates and incubated at 37° C. overnight before compound was added. […] on the medium, cell plates were equilibrated to room temperature for one hour, CellTiterGlo reagent (Promega) was added and luminescence was measured approximately an hour later using a luminometer. Raw data were converted into percent cell viability relative to the high and low control, which were set to 10000 and 000, respectively.

[2] = test system: T24; conditions: Homo sapiens, T-24
Protocol: as §1

[3] = test system: MDAMB231; conditions: Homo sapiens, MDA-MB-231
Protocol: as §1

[4] = test system: RD; conditions: Homo sapiens
Protocol: as §1

[5] = test system: DU145; conditions: Homo sapiens, DU-145
Protocol: as §1

[6] = test system: SKLMS1; conditions: Homo sapiens, SK-LMS-1
Protocol: as §1

[7] = test system: U2OS; conditions: Homo sapiens
Protocol: as §1

[8] = test system: 22RV1; conditions: Homo sapiens
Protocol: as §1

[9] = test system: L363; conditions: Homo sapiens, L-363
Protocol: as §1

[10] = test system: PC3; conditions: Homo sapiens, PC-3
Protocol: as §1

[11] = test system: COLO678; conditions: Homo sapiens, COLO-678
Protocol: as §1

[12] = test system: ASPC1; conditions: Homo sapiens
Protocol: as §1

[13] = test system: HT1080; conditions: Homo sapiens, HT-1080
Protocol: as §1

[14] = test system: COLO205; conditions: Homo sapiens, COLO 205
Protocol: as §1

[15] = test system: SKOV3; conditions: Homo sapiens, SK-OV-3
Protocol: as §1

[16] = test system: EJ28; conditions: Homo sapiens, EJ-28
Protocol: as §1

[17] = test system: NCIH358M; conditions: NCI-H358M
Protocol: as §1

[18] = test system: A673; conditions: Homo sapiens
Protocol: as §1

[19] = test system: A431; conditions: Homo sapiens, A-431
Protocol: as §1

[20] = test system: SF295; conditions: Homo sapiens, SF-295
Protocol: as §1

[21] = test system: NCIH82; conditions: Homo sapiens, NCI-H82
Protocol: as §1

[22] = test system: NCI-H23; conditions: Homo sapiens
Protocol: as §1

[23] = test system: J82; conditions: Homo sapiens
Protocol: as §1

[24] = test system: HeLa; conditions: Homo sapiens
Protocol: as §1

[25] = test system: MDAMB436; conditions: Homo sapiens, MDA-MB-436
Protocol: as §1

[26] = test system: SU-DHL-10; conditions: Homo sapiens, SU-DHL10
Protocol: as §1

`C#C[C@]1(CO)O[C@@H](n2cc(F)c(N)nc2=O)C[C@@H]1O` [compound 9] showed an IC50 ([1]; SNB75, 72 h) of over 10 µM, an IC50 ([1]; SNB75, 120 h) of over 10 µM and an IC50 ([1]; SNB75, 168 h) of over 10 µM. The IC50 ([2]; T24, 72 h) was over 10 µM, the IC50 ([2]; T24, 120 h) was over 10 µM and the IC50 ([2]; T24, 168 h) was over 10 µM. It also gave an IC50 ([3]; MDAMB231, 72 h) of over 10 µM, an IC50 ([3]; MDAMB231, 120 h) of over 10 µM and an IC50 ([3]; MDAMB231, 168 h) of over 10 µM. The IC50 ([4]; 72 h) was over 10 µM, the IC50 ([4]; 120 h) was over 10 µM and the IC50 ([4]; 168 h) was over 10 µM. The IC50 ([5]; DU145, 72 h) was over 10 µM, the IC50 ([5]; DU145, 120 h) was over 10 µM and the IC50 ([5]; DU145, 168 h) was over 10 µM. The IC50 ([6]; SKLMS1, 72 h) was over 10 µM, the IC50 ([6]; SKLMS1, 120 h) was over 10 µM and the IC50 ([6]; SKLMS1, 168 h) was over 10 µM. It also gave an IC50 ([7]; 72 h) of over 10 µM, an IC50 ([7]; 120 h) of over 10 µM and an IC50 ([7]; 168 h) of over 10 µM. It also gave an IC50 ([8]; 22Rv1, 72 h) of 3.8 µM, an IC50 ([8]; 22Rv1, 120 h) of 3.28 µM and an IC50 ([8]; 22Rv1, 168 h) of 3.69 µM. It also gave an IC50 ([9]; L363, 72 h) of over 10 µM, an IC50 ([9]; L363, 120 h) of over 10 µM and an IC50 ([9]; L363, 168 h) of over 10 µM. For the same compound, the IC50 ([10]; PC3, 72 h) was over 10 µM, the IC50 ([10]; PC3, 120 h) was over 10 µM and the IC50 ([10]; PC3, 168 h) was over 10 µM. For the same compound, the IC50 ([11]; COLO678, 72 h) was over 10 µM, the IC50 ([11]; COLO678, 120 h) was over 10 µM and the IC50 ([11]; COLO678, 168 h) was over 10 µM. For the same compound, the IC50 ([12]; ASPC1, 72 h) was over 10 µM, the IC50 ([12]; ASPC1, 120 h) was 0.72 µM and the IC50 ([12]; ASPC1, 168 h) was 0.49 µM. For the same compound, the IC50 ([13]; HT1080, 72 h) was over 10 µM, the IC50 ([13]; HT1080, 120 h) was over 10 µM and the IC50 ([13]; HT1080, 168 h) was over 10 µM. The IC50 ([14]; COLO205, 72 h) was over 10 µM, the IC50 ([14]; COLO205, 120 h) was 1.15 µM and the IC50 ([14]; COLO205, 168 h) was 0.87 µM. The IC50 ([15]; SKOV3, 72 h) was over 10 µM, the IC50 ([15]; SKOV3, 120 h) was over 10 µM and the IC50 ([15]; SKOV3, 168 h) was over 10 µM. It also gave an IC50 ([16]; EJ28, 72 h) of over 10 µM, an IC50 ([16]; EJ28, 120 h) of over 10 µM and an IC50 ([16]; EJ28, 168 h) of over 10 µM. It also gave an IC50 ([17]; 72 h) of over 10 µM, an IC50 ([17]; 120 h) of over 10 µM and an IC50 ([17]; 168 h) of 0.67 µM. The IC50 ([18]; A673, 72 h) was over 10 µM, the IC50 ([18]; A673, 120 h) was over 10 µM and the IC50 ([18]; A673, 168 h) was over 10 µM. The IC50 ([19]; A431, 72 h) was over 10 µM, the IC50 ([19]; A431, 120 h) was 3.18 µM and the IC50 ([19]; A431, 168 h) was 1.42 µM. For the same compound, the IC50 ([20]; SF295, 72 h) was over 10 µM, the IC50 ([20]; SF295, 120 h) was over 10 µM and the IC50 ([20]; SF295, 168 h) was over 10 µM. The IC50 ([21]; NCIH82, 72 h) was over 10 µM, the IC50 ([21]; NCIH82, 120 h) was 9.1 µM and the IC50 ([21]; NCIH82, 168 h) was over 10 µM. For the same compound, the IC50 ([22]; NCI-H23, 72 h) was over 10 µM, the IC50 ([22]; NCI-H23, 120 h) was over 10 µM and the IC50 ([22]; NCI-H23, 168 h) was over 10 µM. For the same compound, the IC50 ([23]; J82, 72 h) was over 10 µM, the IC50 ([23]; J82, 120 h) was over 10 µM and the IC50 ([23]; J82, 168 h) was over 10 µM. The IC50 ([24]; 72 h) was over 10 µM, the IC50 ([24]; 120 h) was over 10 µM and the IC50 ([24]; 168 h) was over 10 µM. For the same compound, the IC50 ([25]; MDAMB436, 72 h) was over 10 µM, the IC50 ([25]; MDAMB436, 120 h) was over 10 µM and the IC50 ([25]; MDAMB436, 168 h) was over 10 µM. It also gave an IC50 ([26]; SU-DHL-10, 72 h) of 0.14 µM, an IC50 ([26]; SU-DHL-10, 120 h) of 61.5 µM and an IC50 ([26]; SU-DHL-10, 168 h) of 3.86 µM.
